Entries after “also recorded” stand apart in the source; their conditions may differ.
What was measured:
[1] = humans, oral administration; cited from earlier work
immune thrombocytopenia = test: mouse model of immune thrombocytopenia; type: in vivo; settings: mouse ITP model
human B cell = test: in vitro human B cell activation; type: cell-based

In the case of `CC(C)(C=C(C#N)C(=O)N1CCC[C@@H](n2nc(-c3ccc(Oc4ccccc4)cc3F)c3c(N)ncnc32)C1)N1CCN(C2COC2)CC1` (mixture of isomers) [rilzabrutinib, (R)-2-[3-[4-amino-3-(2-fluoro-4-phenoxy-phenyl)pyrazolo[3,4-d]pyrimidin-1-yl]piperidine-1-carbonyl]-4-methyl-4-[4-(oxetan-3-yl)piperazin-1-yl]pent-2-enenitrile], the pharmacokinetics variability [1] is given as “variable pharmacokinetics”, the “platelet loss (consumption)” value (immune thrombocytopenia) is given as “reduction in platelet loss; also recorded: significant dose dependent reduction of platelet-loss” and the “human B cell activation” value (human B cell) is given as “profoundly inhibits human B cell activation”.

— patent US20260364079A1 (Principia Biopharma Inc., priority 2022, published 2026)
